Measurements published in publication PMC6749524, “Identification of New Antifungal Agents Targeting Chitin Synthesis by a Chemical-Genetic Method” (Molecules, 2019).

What was measured:
[1] = test system: WT S. cerevisiae; experiment: Checkerboard assay, synergy with caspofungin; assay type: cell-based; conditions: S. cerevisiae, MIC80; for MIC of Caspofungin Combination: MIC of caspofungin in combination with the named compound; for MIC Combination: MIC of the compound in combination with caspofungin
Protocol: (§1) Fresh cell cultures of WT S. cerevisiae and C. albicans ATCC10231 (OD600 = 0.8) were diluted to 10^4 CFU/mL in YPD medium. The in vitro synergistic and antagonistic effects of compounds were determined using checkerboard assay. MIC endpoints were defined as the lowest concentration of drugs, causing 80% decrease in viability compared to the drug-free control (MIC80). The calculation and interpretation of the fractional inhibitory concentration index (FICI) were carried out by referring to the document standards. FICI = (MIC of drug A in combination) / (MIC of drug A alone) + (MIC of drug B in combination) / (MIC of drug B alone). FIC ≤0.5 was considered as a synergistic effect, and >2 was considered as antagonism.

[2] = test system: C. albicans ATCC10231; experiment: Checkerboard assay, synergy with caspofungin; assay type: cell-based; conditions: Candida albicans; for MIC of Caspofungin Combination: MIC of caspofungin in combination with the named compound; for MIC Combination: MIC of the compound in combination with caspofungin
Protocol: as §1

[3] = test system: budding yeast S. cerevisiae; experiment: Growth inhibition, broth microdilution MIC; assay type: cell-based
Protocol: The experiments were carried out using a broth microdilution protocol modified from the Clinical and Laboratory Standards Institute M-27A methods. WT S. cerevisiae and C. albicans were grown to mid-log phase in YPD medium. The cells were collected by centrifugation at 1500 g for 5 min and diluted with RPMI 1640 medium to the density of 1 × 10^4 CFU/mL. Then, the samples with various concentrations of compounds were dispensed at 0.2 mL/well in sterile 96-well microplates. The final concentrations of compounds ranged from 3.125 to 100 μg/mL with serial two-fold dilution. After incubation at 30 °C (S. cerevisiae) or 35 °C (C. albicans) for 24 hours, the minimal inhibitory concentration (MIC) was determined by measuring the optical density of the wells with cell cultures. The antifungal agent caspofungin was used as a positive control. All tests were performed in triplicate.

[4] = test system: WT S. cerevisiae strain BY4741; experiment: MIC in compound library screening assay, WT yeast; assay type: cell-based; conditions: WT BY4741, YPD, 30 °C, 24 hours, MIC90
Protocol: The compound library is a combination of synthetic compounds from Enamine (Kyiv, Ukraine) and Life Chemicals Inc. (Burlington, ON, Canada) and natural products from the Institute of Medicinal Biotechnology. We used WT, chs3∆, and fks1∆ yeast strains to screen new antifungal agents. The screening assays were performed in 96-well plates in a final volume of 200 μL. Fresh yeast cells (OD600 = 0.8) were diluted to 10^5 CFU/mL in YPD medium. We added 198 μL of diluted culture and 2 μL of compounds into each well, and the final concentration of compounds was 100 μg/mL with 1% DMSO. The yeast cells were incubated at 30 °C for 24 hours to assess the growth. For the compounds that inhibited the growth of all three yeast strains, they were serially diluted to determine the minimal inhibit concentration (MIC) with the same method. MIC endpoints were defined as the lowest concentration of drugs that cause a 90% decrease in growth compared to the drug-free control (MIC90).

[5] = test system: chitin in WT yeast cells; experiment: CFW staining of chitin, fluorescence microscopy; assay type: cell-based, S. cerevisiae; conditions: 12.5 or 25 μg/mL, 3 or 5 hours, vs DMSO control
Protocol: (§2) WT S. cerevisiae and C. albicans ATCC10231 were grown to 10^5 CFU/mL in YPD medium and then treated with IMB-D10 (12.5 or 25 μg/mL), IMB-F4 (12.5 or 25 μg/mL), or 0.25% DMSO for 3 and 5 hours at 30 ℃. Cells were collected by centrifugation at 1500 g for 5 min and resuspended in PBS. Some cells were examined using 100 × / 1.25 oil immersion objective (DM2500, Leica) and analyzed by Leica las. Some cells were stained with 100 μg/mL Calcofluor White M2R (CFW, Sigma-Aldrich, St. Louis, MO, USA for 3 min and washed three times with water. Then, the cells were examined under the UV light for fluorescent signals.

[6] = test system: budding yeast; experiment: MIC of CFW in the presence of compounds, checkerboard assay; assay type: cell-based, S. cerevisiae
Protocol: as §1

[7] = test system: C. albicans; experiment: Growth curve assay (OD600 over time); assay type: cell-based, Candida albicans; conditions: 50 μg/mL and 100 μg/mL, p < 0.05
Protocol: Fresh cell cultures of WT yeast S. cerevisiae and Candida albicans ATCC10231 (OD600 = 0.8) were diluted in YPD medium (OD600 = 0.05). Then, IMB-D10 and IMB-F4 were added at concentrations ranging from 12.5 to 100 μg/mL. The cells were collected at different time points, and OD600 was measured with Multi-label Reader. Three experiments were performed independently, and the mean ± SD was calculated.

[8] = test system: chitin level in C. albicans; experiment: CFW staining of chitin, fluorescence microscopy; assay type: cell-based, Candida albicans; conditions: IMB-D10 12.5 μg/mL or IMB-F4 25 μg/mL, 5 hours
Protocol: as §2

Compound	MIC of Caspofungin Combination [1] [µg/mL]	MIC Combination [1] [µg/mL]	MIC ([1]; Saccharomyces cerevisiae, compound alone, read-out: MIC Alone) [µg/mL]	MIC ([2]; ATCC10231, compound alone, MIC80, read-out: MIC Alone) [µg/mL]	MIC of Caspofungin Combination ([2]; MIC80) [µg/mL]	MIC Combination ([2]; MIC80) [µg/mL]	FICI ([2]; fractional inhibitory concentration index with caspofungin, ≤0.5 synergistic)	cell growth inhibition ([3]; S. cerevisiae, at 100 μg/mL)	MIC ([4]; Saccharomyces cerevisiae, read-out: MIC, WT) [µg/mL]	CFW fluorescent signal around the cell wall and at the primary septum [5]	resistance to CFW ([6]; yeast cells treated with 25 and 50 μg/mL IMB-F4)	growth of C. albicans over time [7]	chitin level by CFW staining [8]	MIC Alone ([1]; compound alone) [µg/mL]	MIC Alone ([2]; compound alone, MIC80) [µg/mL]	MIC ([3]; budding yeast S. cerevisiae) [µg/mL]	MIC, WT [4] [µg/mL]	increase of the MIC of CFW ([6]; budding yeast, presence of 12.5 μg/mL IMB-D10)
COc1cc(OC)cc(C(=O)N(CCn2ccnc2)c2nc3ccc(OC)cc3s2)c1 [IMB-F4, N-(2-(1H-imidazol-1-yl)ethyl)-3,5-dimethoxy-N-(6-methoxybenzo[d]thiazol-2-yl)benzamide]	0.0075	25	> 100	> 100	0.003125	12.5	<0.5	did not inhibit cell growth	> 100	weaker fluorescent signal	increased resistance to CFW	growth inhibition was observed after incubation for 6 hours	decreased chitin level					
N-(2-(diethylamino) ethyl)-N-(7-hydroxy-4-methoxybenzo[d]thiazol -2-yl)-2-oxo-2H-chromene-3-carboxamide [IMB-D10]	0.0075	12.5			0.00625	12.5				weaker fluorescent signal		reduced after 4 hours incubation	decreased chitin level	50	100	50	50	eight-fold increase
